“And” between values parts separate entries of the source, which are not always exact repeats. Equal values may be shown once.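 Where inhibition never reached the appropriate level, the endpoint shown equals the highest concentration tested. Otherwise, values were interpolated linearly from a five-concentration, 48-hour dose response in 96-well plates. GI50 marks 50% less growth. TGI: concentration producing complete growth inhibition.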
Tests used:
Experiment in all cases: inhibition of tumour cell growth, NCI panel, 48 h
T-47D breast = test system: T-47D breast
NCI-H23 lung = test system: NCI-H23 lung
UO-31 renal = test system: UO-31 renal
K-562 leukemia = test system: K-562 leukemia
UACC-62 melanoma = test system: UACC-62 melanoma
HCT-116 colon = test system: HCT-116 colon
HS 578T breast = test system: HS 578T breast
OVCAR-5 ovarian = test system: OVCAR-5 ovarian
RXF 393 renal = test system: RXF 393 renal
LOX IMVI melanoma = test system: LOX IMVI melanoma

With O=C(/C(=C\C(=O)c1cccs1)c1ccsc1)c1ccc(Br)cc1 the TGI (T-47D breast) was greater than 100 µM, the TGI (NCI-H23 lung) was greater than 100 µM and the TGI (UO-31 renal) was greater than 100 µM. For the same compound, the TGI (K-562 leukemia) was greater than 100 µM, the TGI (UACC-62 melanoma) was greater than 100 µM and the TGI (HCT-116 colon) was greater than 100 µM. For the same compound, the TGI (HS 578T breast) was greater than 100 µM.
Work on O=[N+]([O-])c1ccc2nc(-c3ccccn3)c(-c3ccccn3)nc2c1 yielded a TGI (T-47D breast) greater than 100 µM, a TGI (OVCAR-5 ovarian) greater than 100 µM and a TGI (NCI-H23 lung) greater than 100 µM. For the same compound, the TGI (UO-31 renal) was greater than 100 µM, the TGI (RXF 393 renal) was greater than 100 µM and the TGI (UACC-62 melanoma) was greater than 100 µM. It also gave a TGI (HCT-116 colon) greater than 100 µM and a TGI (HS 578T breast) greater than 100 µM.
Work on Cn1nc2n(c1=O)CCCN2 yielded a TGI (OVCAR-5 ovarian) greater than 100 µM, a TGI (NCI-H23 lung) greater than 100 µM and a TGI (LOX IMVI melanoma) greater than 100 µM. For the same compound, the TGI (K-562 leukemia) was greater than 100 µM, the TGI (RXF 393 renal) was greater than 100 µM and the TGI (HCT-116 colon) was greater than 100 µM. For the same compound, the TGI (HS 578T breast) was greater than 100 µM.
Compound COc1ccc(/C=c2\[nH]c3nc(=O)c(N4CCOCC4)c(N)n3c2=O)cc1 has a TGI (T-47D breast) greater than 100 µM, a TGI (OVCAR-5 ovarian) greater than 100 µM and a TGI (NCI-H23 lung) greater than 100 µM. The TGI (UO-31 renal) was greater than 100 µM, the TGI (LOX IMVI melanoma) was greater than 100 µM and the TGI (K-562 leukemia) was greater than 100 µM. It also gave a TGI (RXF 393 renal) greater than 100 µM, a TGI (HCT-116 colon) greater than 100 µM and a TGI (HS 578T breast) greater than 100 µM.
With N/N=C1/C2CN3CCN(C2)CC1(c1ccc([N+](=O)[O-])cc1)C3 the TGI (OVCAR-5 ovarian) was greater than 100 µM, the TGI (NCI-H23 lung) was greater than 100 µM and the TGI (UO-31 renal) was greater than 100 µM. For the same compound, the TGI (LOX IMVI melanoma) was greater than 100 µM, the TGI (K-562 leukemia) was greater than 100 µM and the TGI (RXF 393 renal) was greater than 100 µM. The TGI (UACC-62 melanoma) was greater than 100 µM, the TGI (HCT-116 colon) was greater than 100 µM and the TGI (HS 578T breast) was greater than 100 µM.
Work on CC(=O)/C(=C/n1c(=S)[nH]c2ccccc21)C(=O)Nc1ccccc1C yielded a TGI (T-47D breast) greater than 100 µM, a TGI (OVCAR-5 ovarian) greater than 100 µM and a TGI (NCI-H23 lung) greater than 100 µM. The TGI (UO-31 renal) was greater than 100 µM, the TGI (LOX IMVI melanoma) was greater than 100 µM and the TGI (RXF 393 renal) was greater than 100 µM. For the same compound, the TGI (HCT-116 colon) was greater than 100 µM.
C[C@@H](O)C(=O)N1[C@@H]2CC3CC[C@]2(CS1(=O)=O)C3(C)C gave a TGI (T-47D breast) greater than 100 µM, a TGI (OVCAR-5 ovarian) greater than 100 µM and a TGI (NCI-H23 lung) greater than 100 µM. The TGI (UO-31 renal) was greater than 100 µM, the TGI (LOX IMVI melanoma) was greater than 100 µM and the TGI (K-562 leukemia) was greater than 100 µM. The TGI (RXF 393 renal) was greater than 100 µM, the TGI (UACC-62 melanoma) was greater than 100 µM and the TGI (HCT-116 colon) was greater than 100 µM.
With OCC1OC(n2cnc3cncnc32)C(O)C1O (stereo not given) the TGI (OVCAR-5 ovarian) was 4.02 µM, the TGI (NCI-H23 lung) was 3.68 µM and the TGI (UO-31 renal) was 6.84 µM. For the same compound, the TGI (LOX IMVI melanoma) was 2.46 µM, the TGI (K-562 leukemia) was 9.77 µM and the TGI (RXF 393 renal) was 3.9 µM. It also gave a TGI (UACC-62 melanoma) of 2.46 µM and a TGI (HCT-116 colon) of 1.23 µM.
With Cc1ccc(C(C)(C)C[P+](C)(c2ccccc2)c2ccccc2)cc1 the TGI (OVCAR-5 ovarian) was greater than 100 µM, the TGI (NCI-H23 lung) was greater than 58.7 µM and the TGI (UO-31 renal) was greater than 85 µM. For the same compound, the TGI (LOX IMVI melanoma) was 37.8 µM, the TGI (K-562 leukemia) was 46 µM and the TGI (RXF 393 renal) was greater than 94.1 µM. It also gave a TGI (UACC-62 melanoma) of 61.4 µM and a TGI (HCT-116 colon) greater than 58.1 µM.
CC1OC2=N[C@@H]1C(=O)N[C@@H](C(C)C)C1=N[C@H](C(=O)N[C@@H](C(C)C)C3=N[C@H](C(=O)N[C@@H](C(C)C)C4=N[C@H](C(=O)N[C@H]2C(C)C)C(C)O4)C(C)O3)C(C)O1 (stereo not given in full) showed a TGI (T-47D breast) greater than 10 µM, a TGI (OVCAR-5 ovarian) greater than 10 µM and a TGI (NCI-H23 lung) greater than 10 µM. For the same compound, the TGI (UO-31 renal) was greater than 10 µM, the TGI (LOX IMVI melanoma) was greater than 10 µM and the TGI (K-562 leukemia) was greater than 10 µM. The TGI (RXF 393 renal) was greater than 10 µM and the TGI (HS 578T breast) was greater than 10 µM.
N=C1N(S(=O)(=O)c2ccccc2)[C@@H](Cc2ccccc2)[C@H](c2ccccc2)C1(c1ccccc1)c1ccccc1 showed a TGI (OVCAR-5 ovarian) greater than 100 µM, a TGI (NCI-H23 lung) greater than 100 µM and a TGI (UO-31 renal) greater than 100 µM. The TGI (LOX IMVI melanoma) was greater than 100 µM, the TGI (K-562 leukemia) was greater than 100 µM and the TGI (RXF 393 renal) was greater than 100 µM. It also gave a TGI (UACC-62 melanoma) greater than 100 µM, a TGI (HCT-116 colon) greater than 100 µM and a TGI (HS 578T breast) greater than 100 µM.
With [Cl][Pt+2][Cl].[NH-]C1CCCCC1[NH-] (stereo not given) the TGI (OVCAR-5 ovarian) was 78.4 µM and > 100 µM and 14.3 µM, the GI50 (NCI-H23 lung) was 7.21 µM and 3.26 µM and 1.07 µM and the TGI (NCI-H23 lung) was > 58.2 µM and > 100 µM and 17.5 µM. The TGI (UO-31 renal) was greater than 100 µM, the TGI (LOX IMVI melanoma) was greater than 59.3 µM and the TGI (K-562 leukemia) was > 100 µM and 17.8 µM. For the same compound, the GI50 (RXF 393 renal) was > 57.9 µM and 66.8 µM and > 28.6 µM, the TGI (RXF 393 renal) was greater than 100 µM and the GI50 (UACC-62 melanoma) was 11.7 µM and 10.1 µM and 1.47 µM. For the same compound, the TGI (UACC-62 melanoma) was 43.4 µM and > 100 µM and 17.3 µM and the TGI (HCT-116 colon) was > 100 µM and 16 µM.
Compound C/C(=C\c1ccccn1)c1ccccn1 has a TGI (OVCAR-5 ovarian) greater than 100 µM, a TGI (NCI-H23 lung) greater than 100 µM and a TGI (UO-31 renal) greater than 100 µM. The TGI (K-562 leukemia) was greater than 100 µM, the TGI (RXF 393 renal) was greater than 100 µM and the TGI (UACC-62 melanoma) was greater than 100 µM. It also gave a TGI (HCT-116 colon) greater than 100 µM and a TGI (HS 578T breast) greater than 100 µM.
Work on Cc1cc(O)c(C(C)C)cc1SC#N yielded a TGI (T-47D breast) of 65 µM, a TGI (NCI-H23 lung) of 33.3 µM and a TGI (LOX IMVI melanoma) of 32.6 µM. For the same compound, the TGI (K-562 leukemia) was 55 µM, the TGI (RXF 393 renal) was 29.1 µM and the TGI (UACC-62 melanoma) was 28.7 µM. The TGI (HS 578T breast) was 67.4 µM.
C/C=C\C(CC(=O)NCCc1cn(C(=O)OCc2ccccc2)c2ccccc12)CC(=O)OC (stereo not given) showed a TGI (OVCAR-5 ovarian) greater than 100 µM, a TGI (NCI-H23 lung) greater than 100 µM and a TGI (UO-31 renal) greater than 100 µM. The TGI (K-562 leukemia) was greater than 100 µM, the TGI (RXF 393 renal) was greater than 100 µM and the TGI (UACC-62 melanoma) was greater than 100 µM. It also gave a TGI (HCT-116 colon) greater than 100 µM and a TGI (HS 578T breast) greater than 100 µM.
Compound N=c1oc2ccc3ccccc3c2cc1C(N)=O has a TGI (T-47D breast) of 99.7 µM, a TGI (OVCAR-5 ovarian) greater than 100 µM and a TGI (NCI-H23 lung) greater than 100 µM. The TGI (LOX IMVI melanoma) was greater than 100 µM, the TGI (RXF 393 renal) was greater than 100 µM and the TGI (UACC-62 melanoma) was greater than 100 µM. It also gave a TGI (HCT-116 colon) greater than 100 µM and a TGI (HS 578T breast) of 54.6 µM.
Work on CO/C(=N\N=C\c1cccc(Cl)c1)c1ccncc1 yielded a TGI (T-47D breast) greater than 10 µM, a TGI (OVCAR-5 ovarian) greater than 10 µM and a TGI (NCI-H23 lung) greater than 10 µM. It also gave a TGI (UO-31 renal) greater than 10 µM, a TGI (LOX IMVI melanoma) greater than 10 µM and a TGI (K-562 leukemia) greater than 10 µM. For the same compound, the TGI (RXF 393 renal) was greater than 10 µM and the TGI (HCT-116 colon) was greater than 10 µM.
In the case of COC(=O)C1CCC(=O)N1C(=O)Cc1ccc(OC)cc1 (stereo not given), the TGI (OVCAR-5 ovarian) is reported as greater than 100 µM, the TGI (NCI-H23 lung) is reported as greater than 100 µM and the TGI (UO-31 renal) is reported as greater than 100 µM. It also gave a TGI (LOX IMVI melanoma) greater than 100 µM, a TGI (UACC-62 melanoma) greater than 100 µM and a TGI (HCT-116 colon) greater than 100 µM.

— PubChem BioAssay (NCI)
